Tests used:
[1] = molecular target: T1, Estrogen Receptor (ERα) in MCF-7 human ductal carcinoma breast cell line (Homo sapiens, UniProt P03372); test: MCF-7 ER degradation assay (cell based immuno-fluorescence); conditions: MCF-7 cells; for DC50: 18-22 hours incubation, 50% reduction of ERα expression, single experiment or average of two or more, read-out: MCF-7 ER degradation IC50
T1 construct: endogenous in cells; host or cells: MCF-7
T1 sequence (P03372 1-595): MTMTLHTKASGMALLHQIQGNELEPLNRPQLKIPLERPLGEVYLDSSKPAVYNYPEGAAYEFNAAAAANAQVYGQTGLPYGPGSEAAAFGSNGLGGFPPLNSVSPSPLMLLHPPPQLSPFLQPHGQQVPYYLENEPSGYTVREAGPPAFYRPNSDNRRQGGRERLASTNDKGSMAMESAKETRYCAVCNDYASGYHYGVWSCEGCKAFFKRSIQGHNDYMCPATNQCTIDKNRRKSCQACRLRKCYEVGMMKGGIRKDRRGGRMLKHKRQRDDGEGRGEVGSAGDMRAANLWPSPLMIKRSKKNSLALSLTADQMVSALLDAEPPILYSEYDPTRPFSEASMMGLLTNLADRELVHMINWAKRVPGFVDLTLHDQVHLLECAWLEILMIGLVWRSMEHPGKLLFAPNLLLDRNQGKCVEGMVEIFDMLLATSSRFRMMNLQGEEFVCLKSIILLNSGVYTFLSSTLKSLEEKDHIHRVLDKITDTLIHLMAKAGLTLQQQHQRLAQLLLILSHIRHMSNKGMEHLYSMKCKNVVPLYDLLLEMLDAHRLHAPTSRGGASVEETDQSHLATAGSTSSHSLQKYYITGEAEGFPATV
Procedure: MCF-7 ER Degradation Assay
The ability of compounds to down-regulate Estrogen Receptor (ER) numbers was assessed in a cell based immuno-fluorescence assay using the MCF-7 human ductal carcinoma breast cell line. MCF-7 cells were revived directly from a cryovial (approx 5×10^6 cells) in Assay Medium (phenol red free Dulbecco's Modified Eagle's medium (DMEM); Sigma D5921) containing 2 mM L-Glutamine and 5% (v/v) Charcoal/Dextran treated foetal calf serum. Cells were syringed once using a sterile 18 G×1.5 inch (1.2×40 mm) broad gauge needle and cell density was measured using a Coulter Counter (Beckman). Cells were further diluted in Assay Medium to a density of 3.75×10^4 cells per mL and 40 μL per well added to transparent bottomed, black, tissue culture-treated 384 well plates (Costar, No. 3712) using a Thermo Scientific Matrix WellMate or Thermo Multidrop. Following cell seeding, plates were incubated overnight at 37° C., 5% CO2 (Liconic carousel incubator). Test data was generated using the LabCyte Echo™ model 555 compound reformatter which is part of an automated workcell (Integrated Echo 2 workcell). Compound stock solutions (10 mM) of the test compounds were used to generate a 384 well compound dosing plate (Labcyte P-05525-CV1). 40 μL of each of the 10 mM compound stock solutions was dispensed into the first quadrant well and then 1:100 step-wise serial dilutions in DMSO were performed using a Hydra II (MATRIX UK) liquid handling unit to give 40 μL of diluted compound into quadrant wells 2 (0.1 mM), 3 (1 μM) and 4 (0.01 μM), respectively. 40 μL of DMSO added to wells in row P on the source plate allowed for DMSO normalisation across the dose range. To dose the control wells 40 μL of DMSO was added to row O1 and 40 μL of 100 μM fulvestrant in DMSO was added to row O3 on the compound source plate.
The Echo uses acoustic technology to perform direct microplate-to-microplate transfers of DMSO compound solutions to assay plates. The system can be programmed to transfer volumes as low as 2.5 nL in multiple increments between microplates and in so doing generates a serial dilution of compound in the assay plate which is then back-filled to normalise the DMSO concentration across the dilution range. Compounds were dispensed onto the cell plates with a compound source plate prepared as above producing a 12 point duplicate […] dose range with 3-fold dilutions and one final 10-fold dilution using the Integrated Echo 2 workcell. The maximum signal control wells were dosed with DMSO to give a final concentration of 0.3%, and the minimum signal control wells were dosed with fulvestrant to give a final concentration of 100 nM accordingly. Plates were further incubated for 18-22 hours at 37° C., 5% CO2 and then fixed by the addition of 20 μL of 11.1% (v/v) formaldehyde solution (in phosphate buffered saline (PBS)) giving a final formaldehyde concentration of 3.7% (v/v). Cells were fixed at room temperature for 20 mins before being washed two times with 250 μL PBS/Proclin (PBS with a Biocide preservative) using a BioTek platewasher, 40 μL of PBS/Proclin was then added to all wells and the plates stored at 4° C. The fixing method described above was carried out on the Integrated Echo 2 workcell. Immunostaining was performed using an automated AutoElisa workcell. The PBS/Proclin was aspirated from all wells and the cells permeabilised with 40 μL PBS containing 0.5% Tween™ 20 (v/v) for 1 hour at room temperature. The plates were washed three times in 250 μL of PBS/0.05% (v/v) Tween 20 with Proclin (PBST with a Biocide preservative) and then 20 μL of ERα (SP1) Rabbit monoclonal antibody (Thermofisher) 1:1000 in PBS/Tween™/3% (w/v) Bovine Serum Albumin was added. The plates were incubated overnight at 4° C. (Liconic carousel incubator) and then washed three times in 250 μL of PBS/0.05% (v/v) Tween™ 20 with Proclin (PBST). […]

[2] = molecular target: T2, recombinant human Estrogen Receptor alpha ligand binding domain, residues 307-554 (ER alpha-LBD (GST)) (Homo sapiens, UniProt P03372); test: ERα binding assay (LanthaScreen TR-FRET competition); conditions: TR-FRET competition with Fluormone ES2 tracer, 4 hours at room temperature; single experiment or average of two or more
T2 construct: made in house
T2 sequence (P03372 307-554): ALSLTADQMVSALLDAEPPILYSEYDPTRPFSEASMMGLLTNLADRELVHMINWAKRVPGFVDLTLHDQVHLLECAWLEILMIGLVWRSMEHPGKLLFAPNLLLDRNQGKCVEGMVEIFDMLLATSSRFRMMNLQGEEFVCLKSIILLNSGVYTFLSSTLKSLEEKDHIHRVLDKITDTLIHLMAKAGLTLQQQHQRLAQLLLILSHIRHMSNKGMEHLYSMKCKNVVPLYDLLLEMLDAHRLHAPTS
Procedure: The ability of compounds to bind to isolated Estrogen Receptor Alpha Ligand binding domain (ER alpha-LBD (GST)) was assessed in competition assays using a LanthaScreen™ Time-Resolved Fluorescence Resonance Energy Transfer (TR-FRET) detection end-point. For the LanthaScreen TR-FRET endpoint, a suitable fluorophore (Fluormone ES2, ThermoFisher, Product code P2645) and recombinant human Estrogen Receptor alpha ligand binding domain, residues 307-554 (expressed and purified in-house) were used to measure compound binding. The assay principle is that ER alpha-LBD (GST) is added to a fluorescent ligand to form a receptor/fluorophore complex. A terbium-labelled anti-GST antibody (Product code PV3551) is used to indirectly label the receptor by binding to its GST tag, and competitive binding is detected by a test compound's ability to displace the fluorescent ligand, resulting in a loss of TR-FRET signal between the Tb-anti-GST antibody and the tracer. The assay was performed as follows with all reagent additions carried out using the Beckman Coulter BioRAPTR FRD microfluidic workstation: • 1. Acoustic dispense 120 nL of the test compound into a black low volume 384 well assay plates. • 2. Prepare 1×ER alpha-LBD/Tb-antiGST Ab in ES2 screening buffer and incubate for 15 minutes. • 3. Dispense 6 μL of the […] reagent into each well of the assay plate followed by 6 μL of Fluorophore reagent into each well of the assay plate • 4. Cover the assay plate to protect the reagents from light and evaporation, and incubate at room temperature for 4 hours. • 5. Excite at 337 nm and measure the fluorescent emission signal of each well at 490 nm and 520 nm using the BMG PheraSTAR.
Compounds were dosed directly from a compound source microplate containing serially diluted compound (4 wells containing 10 mM, […] and 10 nM final compound respectively) to an assay microplate using the Labcyte Echo 550. The Echo 550 is a liquid handler that uses acoustic technology to perform direct microplate-to-microplate transfers of DMSO compound solutions and the system can be programmed to transfer multiple small nL volumes of compound from the different source plate wells to give the desired serial dilution of compound in the assay which is then back-filled to normalise the DMSO concentration across the dilution range.
In total 120 nL of compound plus DMSO were added to each well and compounds were tested in a 12-point concentration response format over a final compound concentration range of 10, 2.917, 1.042, 0.2083, 0.1, 0.0292, 0.0104, 0.002083, 0.001, 0.0002917, 0.0001042, and 0.00001 μM respectively. TR-FRET dose response data obtained with each compound was exported into a suitable software package (such as Origin or Genedata) to perform curve fitting analysis. Competitive ER alpha binding was expressed as an IC50 value. This was determined by calculation of the concentration of compound that was required to give a 50% reduction in tracer compound binding to ER alpha-LBD.

Row | Compound | DC50 [1] [nM] | IC50 [2] [nM] | ER degradation ≥ 90% at 0.3 μM ([1]; 0.3 μM, ER degradation by fulvestrant at 0.3 μM is defined as 100%)
1 | Cc1ncsc1-c1ccc(CNC(=O)[C@@H]2C[C@@H](O)CN2C(=O)[C@@H](NC(=O)c2ccc(CCCCCOc3cc(F)c([C@@H]4c5[nH]c6ccccc6c5C[C@@H](C)N4CC(C)(C)F)c(F)c3)cc2)C(C)(C)C)cc1 [Example 27, (2S,4R)-1-((S)-2-(4-(5-(3,5-Difluoro-4-((1R,3R)-2-(2-fluoro-2-methylpropyl)-3-methyl-2,3,4,9-tetrahydro-1H-pyrido[3,4-b]indol-1-yl)phenoxy)pentyl)benzamido)-3,3-dimethylbutanoyl)-4-hydroxy-N-(4-(4-methylthiazol-5-yl)benzyl)pyrrolidine-2-carboxamide] | 22 | 1.1 | 
2 | Cc1ncsc1-c1ccc(CNC(=O)[C@@H]2C[C@@H](O)CN2C(=O)[C@@H](NC(=O)COCCOCCOCCOc2cc(F)c([C@@H]3c4[nH]c5ccccc5c4C[C@@H](C)N3CC(C)(C)F)c(F)c2)C(C)(C)C)cc1 [Example 38, (2S,4R)-1-((S)-2-(tert-Butyl)-14-(3,5-difluoro-4-((1R,3R)-2-(2-fluoro-2-methylpropyl)-3-methyl-2,3,4,9-tetrahydro-1H-pyrido[3,4-b]indol-1-yl)phenoxy)-4-oxo-6,9,12-trioxa-3-azatetradecanoyl)-4-hydroxy-N-(4-(4-methylthiazol-5-yl)benzyl)pyrrolidine-2-carboxamide] |  | 0.7 | ••
3 | Cc1ncsc1-c1ccc(CNC(=O)[C@@H]2C[C@@H](O)CN2C(=O)[C@@H](NC(=O)c2ccc(COc3cc(F)c([C@@H]4c5[nH]c6ccccc6c5C[C@@H](C)N4CC(C)(C)F)c(F)c3)cc2)C(C)(C)C)cc1 [Example 36, (2S,4R)-1-((S)-2-(4-((3,5-Difluoro-4-((1R,3R)-2-(2-fluoro-2-methylpropyl)-3-methyl-2,3,4,9-tetrahydro-1H-pyrido[3,4-b]indol-1-yl)phenoxy)methyl)benzamido)-3,3-dimethylbutanoyl)-4-hydroxy-N-(4-(4-methylthiazol-5-yl)benzyl)pyrrolidine-2-carboxamide] | 1 | 1 | 
4 | CC(=O)O[C@@H]1C[C@@H](C(=O)NCc2ccc(-c3scnc3C)cc2)N(C(=O)[C@@H](NC(=O)COCCCCCCOc2cc(F)c([C@@H]3c4[nH]c5ccccc5c4C[C@@H](C)N3CC(C)(C)F)c(F)c2)C(C)(C)C)C1 [Example 52, (3R,5S)-1-((S)-2-(2-((6-(3,5-difluoro-4-((1R,3R)-2-(2-fluoro-2-methylpropyl)-3-methyl-2,3,4,9-tetrahydro-1H-pyrido[3,4-b]indol-1-yl)phenoxy)hexyl)oxy)acetamido)-3,3-dimethylbutanoyl)-5-((4-(4-methylthiazol-5-yl)benzyl)carbamoyl)pyrrolidin-3-yl acetate] | 2.1 | 1.1 | 
5 | Cc1ncsc1-c1ccc(CNC(=O)[C@@H]2C[C@@H](O)CN2C(=O)[C@@H](NC(=O)CCN2CCN(CCCCOc3cc(F)c([C@@H]4c5[nH]c6ccccc6c5C[C@@H](C)N4CC(C)(C)F)c(F)c3)CC2)C(C)(C)C)cc1 [Example 98, (2S,4R)-1-((S)-2-(3-(4-(4-(3,5-Difluoro-4-((1R,3R)-2-(2-fluoro-2-methylpropyl)-3-methyl-2,3,4,9-tetrahydro-1H-pyrido[3,4-b]indol-1-yl)phenoxy)butyl)piperazin-1-yl)propanamido)-3,3-dimethylbutanoyl)-4-hydroxy-N-(4-(4-methylthiazol-5-yl)benzyl)pyrrolidine-2-carboxamide] | 0.4 | 0.6 | 

Reference: US10519152B2, “Compounds and their use in treating cancer” (AstraZeneca AB, priority 2017, dated 2019)
